In assay [1] the test system is murine sarcoma MO4 (semi-resistant cell line). Nature of the assay: Subrenal capsule implant of MO4 tumour fragments in mice, change in tumor size at day 7. The class given is in vivo. The following applies: daily intraperitoneal day 1 until day 6. The text has this:
(§1) The potential of flunarizine as a potent enhancer of adriamycine (ADR) cytotoxicity in the murine sarcoma MO4 (semi-resistant cell line) "in vitro" and "in vivo" and its reversed adriamycine resistance in the P388/ADR (adriamycine resistant cell line) murine leukemia "in vivo"can be demostrated by the following procedure.
(§2) Fragments of subcutaneously grown tumours were inserted under the renal capsule in mice and their initial size measured under a microscope. At day 7, the mice were killed and the final size of the implants determined. The change in tumor size was expressed as a percentage of the initial size, the latter considered to be 100%. Daily intraperitoneal treatment with ADR alone or in combination with flunarizine which was formulated in hydroxypropyl-β-cyclodextrin was installed from day 1 until day 6. Control animals received the vehicle hydroxypropyl-ß-cyclodextrin.

Assay [2] relates to P388/ADR (adriamycine resistant cell line) murine leukemia. Kind of assay: Subrenal capsule implant of P388/ADR tumour fragments in mice, change in tumor size at day 7. It counts as in vivo. The note with it: P388/ADR implants under renal capsule, monotherapy, daily intraperitoneal day 1 until day 6.
Text: as §1, §2

Two compounds from patent publication EP0503710A2, “Flunarizine containing anti-neoplastic compositions” (JANSSEN PHARMACEUTICA N.V., priority 1991, dated 1992) can be followed below.

For the compound `Fc1ccc(C(c2ccc(F)cc2)N2CCN(CC=Cc3ccccc3)CC2)cc1` [Flunarizine, 1-[bis(4-fluorophenyl)methyl]-4-(3-phenyl-2-propenyl)piperazine], the “effect on tumor growth” value is given as “no effect” in assay [1] (MO4 implants under renal capsule, flunarizine monotherapy in hydroxypropyl-β-cyclodextrin, size at day 7) and “no effect” in assay [2].
With `COc1cccc2c1C(=O)c1c(O)c3c(c(O)c1C2=O)C[C@@](O)(C(=O)CO)C[C@@H]3O[C@H]1C[C@H](N)[C@H](O)[C@H](C)O1` [adriamycine], the “effect on tumor growth” value in assay [1] (MO4-tumor, adriamycine alone, dosages lower than 2.5 mg/kg) was “no effect”; in assay [2], “inactive”. The growth reduction in assay [1] (MO4-tumor, adriamycine alone, half the maximal tolerated dose 2.5 mg/kg) worked out at 25%.
